Results from patent US20190030053A1, “COMPOSITION FOR INCREASING EXPRESSION OF PGC-1alpha” (BENEBIOSIS CO., LTD., priority 2016, published 2019).
“Also recorded” adds a separate entry of the source.

Experiments:
PGC-1α and related genes = assay: Gene expression by body parts in aging stimulation models; type: in vivo, mouse; details: SAM P1/Sku Slc mice, oral 0.1 mg/kg/day, 12 weeks, organs and skeletal muscles
Procedure: In order to investigate the gene expression changes by body parts by the treatment with SL (3′-SL & 6′-SL) compositions in aging stimulation models, 4-week-old male aging stimulation model mice (SAM P1/Sku Slc) were purchased from Central Lab Animal (Korea). Water was freely accessible, and a commercially available pellet feed (Dooyeul Biotech, Korea) was given for one week. […]
Sialyllactose or DW was orally administered daily. […] The dietary intake and body weight change were measured every 5 days. […]
The gene expression changes by administration of the SL (3′-SL & 6′-SL) compositions were quantitatively compared for eight main organs (heart, hippocampus, brain, spinal cord, lung, liver, spleen, and kidney), three skeletal muscles (soleus muscle, quadriceps femoris muscle, and gastrocnemius muscle), and the like. RNA was extracted by TRIzol agent (Invitrogen). cDNA was synthesized by using RNA, which has been extracted as above and quantified, and a reverse transcription system (Promega, USA). The expression patterns of PGC-1α and related genes were measured by using pre-designed primers and probes (Applied Biosystems; PGC-1α, Mm00447181_m1, GAPDH, and Mm99999915_q1) for the synthesized cDNA and analysis targets (Fndc5, PGC-1α, Erra, UCP1, SOD2, and GPX1). […]

[1] = system: skin test model (HRM2) mice; assay: Skin tests (UV irradiation, skin sensitivity, skin irritation, subcutaneous absorption) in skin test model mice; type: in vivo, mouse; details: oral 0.1 mg/kg/day, 10 weeks
From the text: In order to investigate the gene expression chages by body parts by the treatment with the SL (3′-SL & 6′-SL) compositions in skin test models, 6-week-old male skin test model (HRM2) mice (hairless appearance containing melanin) were randomly grouped into three different dietary treatment groups (8 animals per group, a total of 24 animals) below, and the diets (AIN-76A, Dyets, USA) were maintained for 10 weeks. The UV irradiation (black spot, wrinkle test), skin sensitivity test, skin irritation test, subcutaneous absorption test, or the like were conducted using a portable color-difference meter (CR-10, Minolta, Japan): • Control group: Group fed with a normal diet (8 animals) • 3′-SL administration group: Models treated with 3′-sialyllactose (3′-SL, Sigma) (oral administration of 0.1 mg per kg of mouse weight per day) in addition to the normal diet group (8 animals) • 6′-SL administration group: Models treated with 6′-sialyllactose (6′-SL, Sigma) (oral administration of 0.1 mg per kg of mouse weight per day) in addition to the normal diet group (8 animals)

Row | Structure (SMILES) | expression levels of analysis targets (Fndc5, PGC-1α, Erra, UCP1, SOD2, GPX1) vs control group (PGC-1α and related genes; 0.1 mg/kg/day) | skin state in UV irradiation (black spot, wrinkle test), skin sensitivity, skin irritation, subcutaneous absorption tests vs control [1] | expression levels of analysis targets (Fndc5, PGC-1α, Erra, UCP1, SOD2, GPX1) vs control group (PGC-1α and related genes)
1 | CC(=O)N[C@H]1[C@H]([C@H](O)[C@H](O)CO)O[C@@](O[C@H]2[C@@H](O)[C@@H](CO)O[C@@H](O[C@H]3[C@H](O)[C@@H](O)C(O)O[C@@H]3CO)[C@@H]2O)(C(=O)O)C[C@@H]1O (stereo partly drawn) [3′-SL, α-NeuNAc-(2→3)-β-D-Gal-(1→4)-D-Glc] | significant increases; also recorded: relatively low compared with 6′-SL | much improved skin | –
2 | CC(=O)N[C@H]1[C@H]([C@H](O)[C@H](O)CO)O[C@@](OC[C@H]2O[C@@H](O[C@H]3[C@H](O)[C@@H](O)[C@H](O)O[C@@H]3CO)[C@H](O)[C@@H](O)[C@H]2O)(C(=O)O)C[C@@H]1O [6′-SL, α-NeuNAc-(2→6)-β-D-Gal-(1→4)-D-Glc] | – | much improved skin | significant increases
